Experiments:
HIV-2 strains = assay: HIV-2 strains, reverse transcriptase activity in MT-2 cells; type: cell-based
Method: Virus yields were measured in dose-response experiments by either luciferase activity in human T-cells (CEM-NKR-CCR5-Luc), extracellular reverse transcriptase activity in MT-2 cells (T-tropic viruses), or extracellular p24 antigen in PM1 cells (M-tropic viruses).
Multiple-cycle assays using recombinant viruses or clinical isolates were used to assess MI antiviral activity as described previously ([10]). pNLRepRlucP373S (the P373S change is in the Gag gene and converts an outlier polymorphism in the NL4-3 gene to the prevalent amino acid in the population) plasmids containing SDMs in Gag or gag/pr regions from clinical isolates were transfected into HEK 293T cells, and the supernatant containing recombinant virus was harvested after 4 to 5 days. Virus was used to infect MT-2 cells in the presence of a 3-fold serially diluted compound at a final dimethyl sulfoxide (DMSO) concentration of 1%. The inocula of the reporter viruses were determined based on the luciferase activity detected on day 4 postinfection. The MOI (ratio of infectious virions to target cells) of reporter-free laboratory strains and clinical isolates was 0.005, as derived from a tissue culture infectious dose study. Clinical isolates or reporter-free viruses were examined in the reporter CEM-NKR-CCR5-Luc cells or PBMCs at MOIs ranging from 0.005 to 0.01. Each infection started with a drug-free preincubation of the cell-virus mixtures, performed at 37°C and 5% CO2 for either 1 h at 2 times the final cell density (reporter viruses) or 1 h (reporter-free laboratory strains) or 3 h (clinical isolates) using cell pellets in 0.5 mL of medium. […] Virus growth was determined on days 4 to 5 postinfection for reporter variants or days 5 to 11 for the other viruses. The reporter viruses were detected by a luciferase assay according to manufacturer protocols (Brite-Glo luciferase kit [Promega] for CEM-NKR-CCR5-Luc cells and Dual-Luciferase Reporter 1000 assay system [Promega] for the other cells), and luminescence was detected on a Wallac Trilux. The growth of clinical isolates in PBMCs was quantitated by reverse transcriptase activity in a 96-well scintillation proximity assay (SPA). […] Luminescence was detected on a Wallac Trilux programmed for tritium counting with SPA beads in opaque plates. The growth of the reporter-free laboratory M-tropic strains and clinical isolates was monitored by a p24 enzyme-linked immunosorbent assay (ELISA; PerkinElmer Life Sciences, Waltham, MA) performed on culture supernatants.
Maximal percent inhibition values were calculated as MPI = 100 – (mean signals at the 2 highest concentrations of compound/mean signal of 2 no-drug control wells) × 100.

[1] = tested on: RepRlucNL4-3GagP373S variants; assay: Virus breakthrough in MT-2 cell culture in the presence of compound; type: cell-based, HIV-1; settings: for Days to virus breakthrough, Expt 1 / Days to virus breakthrough, Expt 2: drug 80 nM; for samples exhibiting breakthrough: low and high MOIs, 80 nM, over the 46-day experiment
Method: The ability of virus to break through and grow in the presence of an inhibitory concentration of a compound in cell culture provides an indication of its resistance barrier. […] Experiments were performed in duplicate at a low or high MOI (0.005 and 0.05) and at a drug concentration of 80 nM with RepRlucP373S WT virus or SDM-containing virus with known Gag polymorphisms (Table 6).
Cultures were incubated at 37°C and 5% CO2 until ∼100% cytopathic effect (CPE) was observed. […] At each passage, 100 μL of culture supernatant was collected and stored at −20°C. When a culture reached 100% CPE, it was terminated, and supernatants were harvested for subsequent virus population sequencing.

[2] = tested on: NLRepRlucP373S-based viruses; assay: microbe, parasite or virus in culture; type: cell-based, HIV-1; settings: for EC50 / EC90: 10% FBS + 40% HS + 27 mg/mL of HSA
[3] = tested on: NL4-3P373S viruses (WT and V370A); assay: Resistance selection by serial passage in increasing GSK’254 concentrations; type: cell-based, HIV-1; settings: starting concentration 2 nM GSK’254
Method: NL4-3GagP373S (WT) and the SDM NL4-3 GagP373SV370A (V370A) were used to start the selections. These variants were selected as parent virus based on common WT and V370A expression in HIV-1 subtypes (47% WT and ∼36% V370A as indicated by the LANL HIV sequence database (https://www.hiv.lanl.gov/content/index). Each selection was performed in triplicate, starting with 2 × 10^6 MT-2 cells infected with each virus at an MOI of 0.005 (50% tissue culture infectious dose determined by CPE and cultured in 2 × 10^5 cells/mL in compound-containing medium). Each passage was terminated at ∼100% CPE. To passage virus, the cultures were centrifuged, and 25 μL of viral supernatants was transferred into 10 mL of a fresh cell culture in the presence of a 2-fold-increased compound concentration.

[4] = Human immunodeficiency virus 2, MT2, HIV-2 287
[5] = Human immunodeficiency virus 2, MT2, HIV-2 ROD, second value in cell
[6] = Human immunodeficiency virus 1, HS27, V370A
[7] = Human immunodeficiency virus 1, HS27, Wild type
[8] = Human immunodeficiency virus 1, HS27, ΔV370

Compound	EC50 (HIV-2 strains; [4])	EC50 (HIV-2 strains; [5])	Days to virus breakthrough, Expt 1 ([1]; High MOI (0.05), V362I)	Days to virus breakthrough, Expt 2 ([1]; High MOI (0.05), V362I)	Days to virus breakthrough, Expt 1 ([1]; High MOI (0.05), V370A)	Days to virus breakthrough, Expt 2 ([1]; High MOI (0.05), V370A)	Days to virus breakthrough, Expt 1 ([1]; High MOI (0.05), V370M)	Days to virus breakthrough, Expt 2 ([1]; High MOI (0.05), V370M)	Days to virus breakthrough, Expt 1 ([1]; High MOI (0.05), Wild type)	Days to virus breakthrough, Expt 2 ([1]; High MOI (0.05), Wild type)	Days to virus breakthrough, Expt 1 ([1]; Low MOI (0.005), V362I)	Days to virus breakthrough, Expt 2 ([1]; Low MOI (0.005), V362I)	Days to virus breakthrough, Expt 1 ([1]; Low MOI (0.005), V370A)	Days to virus breakthrough, Expt 2 ([1]; Low MOI (0.005), V370A)	Days to virus breakthrough, Expt 1 ([1]; Low MOI (0.005), V370M)	Days to virus breakthrough, Expt 2 ([1]; Low MOI (0.005), V370M)	Days to virus breakthrough, Expt 1 ([1]; Low MOI (0.005), Wild type)	Days to virus breakthrough, Expt 2 ([1]; Low MOI (0.005), Wild type)	samples exhibiting breakthrough [1]	other results
C=C(C)[C@@H]1CC[C@]2(NCCN3CCS(=O)(=O)CC3)CC[C@]3(C)[C@H](CC[C@@H]4[C@@]5(C)CC=C(c6ccc(C(=O)O)cc6)C(C)(C)[C@@H]5CC[C@]43C)[C@@H]12 [GSK’795, reference compound]	751 nM	17 nM	7 days	7 days	11 days	11 days	7 days	7 days	11 days	14 days	7 days	11 days	11 days	18 days	7 days	11 days	>46 days	14 days	15 of 16	–
C=C(C)[C@@H]1CC[C@]2(NCCN3CCS(=O)(=O)CC3)CC[C@]3(C)[C@H](CC[C@@H]4[C@@]5(C)CC=C(C6=CC[C@@](CF)(C(=O)O)CC6)C(C)(C)[C@@H]5CC[C@]43C)[C@@H]12 [GSK’254]	> 1390 nM	2.5 nM	11 days	11 days	>46 days	>46 days	21 days	11 days	>46 days	18 days	46 days	>46 days	>46 days	11 days	>46 days	18 days	14 days	>46 days	9 of 16	EC50 [2, 6]: 9.1 nM; EC90 [2, 6]: 42.2 nM; EC50 [2, 7]: 12.3 nM; EC90 [2, 7]: 26.1 nM; EC50 [2, 8]: 38.2 nM; EC90 [2, 8]: 195 nM; average potency decrease in human serum ([2]; average of WT, V370A and ΔV370 viruses): 7.9 fold; average time until sufficient viral titer to permit passage 1 [3]: 24 days

Reference: publication PMC8765437, “GSK3640254 Is a Novel HIV-1 Maturation Inhibitor with an Optimized Virology Profile” (Antimicrobial Agents and Chemotherapy, 2022)
